9 molecules from article PMC7917639, “Nopol-Based Quinoline Derivatives as Antiplasmodial Agents” (Molecules, 2021) can be followed below.

One data set in a line: Cytotoxicity assay (MTT). Type of data set: cell-based, Human. Particulars: human. As to the method:
(§1) Human hepatocarcinoma cell line (Hep G2, ATCC CRL-11997TM) was used for cytotoxicity studies as previously described. The cells were grown in complete medium (DMEM:F12 containing L-glutamine and sodium bicarbonate, 10% FBS, 1% penicillin/streptomycin, Thermo Fisher Scientific) at 37 °C in 5% CO2 environment. Cells (198 µL, 5 × 10^5/mL) were seeded into 96-well plates and incubated overnight. The cells were treated with the compounds (160–1.25 µM, in triplicates) or DMSO (1%) for 72 h. The cell medium was removed and replaced with DMEM:F12 medium containing MTT (0.5 mg/mL) was added to the cells and incubated for 1.5 h. The MTT-containing medium was gently removed and replaced with DMSO (200 µL/well). The contents of each well were then repeatedly mixed with a multichannel pipette and incubated for 10 min. The plates were read at 570 nm. DMSO-treated (1%) cells were used as negative assay control and SDS (10%) was used as assay positive control. Percent cell viabilities were expressed as a percentage of the mean viability of DMSO-treated (1%) cells.

Data set [1] deals with P. falciparum 3D7 (Pf3D7, chloroquine-sensitive strain). Put plainly: Pf3D7 asexual blood-stage growth inhibition, SYBR Green fluorescence assay. Type of data set: cell-based, Plasmodium falciparum. Particulars: for Pf3D7 selectivity index (SI, CC50/EC50): Hep G2 CC50 / Pf3D7 EC50; for EC50: read-out: Pf3D7 EC50; for Antiplasmodial activity against Pf3D7 (in words): chloroquine-sensitive strain. As for the experimental part:
a. Pf3D7: 100 μL of complete media (Sigma-Aldrich’s RPMI 1640, 25 mM HEPES, 10 μg/mL gentamicin, 0.5 mM hypoxanthine supplemented with NaHCO3 and 0.5% Albumax II, 37 °C) containing compounds (50–0.3 µM) or 100 µM chloroquine were added to 96 well plates in triplicates. This was followed by the addition of 100 µL erythrocytic asexual culture of Pf3D7 (10% hematocrit and 0.25% ring stage parasitemia), maintained at atmospheric conditions of 1% oxygen, 5% carbon dioxide, and 94% nitrogen, and allowed to grow for 96 h at 37 °C. The cultures were then frozen at −80 °C overnight and thawed at 37 °C for 4 h. Aliquots (100 µL) from each well were transferred to black 96-well plates, 100 μL of 2× SYBR Green (Molecular Probes) in lysis buffer (20 mM Tris at pH 7.5, 5 mM EDTA, 0.008% saponin, 0.08% Triton X-100) was added to each well and mixed thoroughly with a pipette. The plates were incubated in the dark at room temperature for 1 h and read at λex 485 nm and λem 530 nm. Infected and untreated red blood cells (iRBC) cultures served as negative control. Percent inhibitory activities were calculated using (=100 − 100*((Sample − 100 µM CQ)/(iRBC − 100 µM CQ)) and used to plot sigmoidal inhibition curves to obtain the EC50 values.

The test system of the next data set is PfNF54. In words: PfNF54 erythrocytic stage growth inhibition, [3H]-hypoxanthine incorporation assay. Type of data set: cell-based, Plasmodium falciparum. Particulars: for PfNF54 selectivity index (SI, CC50/EC50): Hep G2 CC50 / PfNF54 EC50; for EC50: erythrocytic stages, 48 h + 24 h with 3H-hypoxanthine. As to the method: b. PfNH54 and PfK1: The growth inhibitory activities of the compounds against erythrocytic stages of PfNH54 and PfK1 were determined using the [^3H]-hypoxanthine incorporation assay as previously reported. […] The CPMs were expressed as a percentage of the CPMs from the untreated controls and used to estimate the EC50 from sigmoidal inhibition curves. Artemisinin and CQ were used as positive controls.

The subject of a further data set is PfK1. In words: PfK1 erythrocytic stage growth inhibition, [3H]-hypoxanthine incorporation assay. It is filed as cell-based, Plasmodium falciparum. Particulars: for Antiplasmodial activity against K1 strain (in words): multidrug-resistant strain; for PfK1 selectivity index (SI, CC50/EC50): Hep G2 CC50 / PfK1 EC50; for EC50: erythrocytic stages, 48 h + 24 h with 3H-hypoxanthine. As to the method: b. PfNH54 and PfK1: The growth inhibitory activities of the compounds against erythrocytic stages of PfNH54 and PfK1 were determined using the [^3H]-hypoxanthine incorporation assay as previously reported. Parasites in RPMI 1640 medium containing […] (without hypoxanthine) were treated with compounds (50–0.3 µM) in 96 well plates for 48 h at 37 °C in 92% N2, 5% CO2, and 3% O2. ^3H-hypoxanthine (0.5 μCi) was added to each well, incubated for an additional 24 h, harvested onto glass-fiber filters, and washed with distilled water. Radioactivity at each compound concentration was counted using a Betaplate™ liquid scintillation counter (Wallac, Zurich), and the results were recorded as counts per minute (CPM) per well. The CPMs were expressed as a percentage of the CPMs from the untreated controls and used to estimate the EC50 from sigmoidal inhibition curves. Artemisinin and CQ were used as positive controls.

Data set [2] deals with Human hepatocarcinoma cell line (Hep G2). Put plainly: Cytotoxicity assay (MTT). Particulars: 72 h. It is filed as cell-based. As for the experimental part: as §1
Data set [3] has the same test system. Put plainly: Cytotoxicity assay (MTT). It is filed as cell-based. Particulars: SDS 0.1%, assay positive control.
The mark [4] stands for this setting: Plasmodium falciparum, 3D7, erythrocytic asexual culture, 96 h, SYBR Green.
[5] abbreviates: erythrocytic asexual culture, 96 h, SYBR Green.

“And” between values parts separate entries of the source, which are not always exact repeats. Equal values may be shown once. Read-outs that look alike come from different tables or passages of the source.

In general, CC50 refers to the concentration giving 50% cytotoxicity. As usually defined, the EC50 is the concentration needed to bring the measured effect to its halfway point. Take `CC1(C)[C@H]2CC=C(CCOC(=O)c3cc4ccccc4[nH]3)[C@@H]1C2` [Compound 15, 2-((1R,5S)-6,6-dimethylbicyclo[3.1.1]hept-2-en-2-yl)ethyl-1H-indole-2-carboxylate]: the half-maximal cytotoxic concentration (CC50) at 72 h in the data set “Cytotoxicity assay (MTT)” (Hep G2 cells (human hepatocarcinoma cell line)) was above 40 µM. For the same molecule, in data set [1], the “Pf3D7 selectivity index (SI, CC50/EC50)” value was above 8.5 and the “Antiplasmodial activity against Pf3D7 (in words)” value was “moderately active”. Also, the EC50 in data set [1] (Plasmodium falciparum, 3D7, 96 h) is 4.71 ± 0.07 µM.
As for `CC1(C)[C@@H]2CC=C(CCOC(=O)c3cc4ccccc4nc3Cl)[C@H]1C2` (stereo in doubt) [Compound 14, 2-((1S,5R)-6,6-dimethylbicyclo[3.1.1]hept-2-en-2-yl)ethyl-2-chloroquinoline-3-carboxylate], in the data set “Cytotoxicity assay (MTT)” (read-out: Hep G2 CC50), the CC50 at 72 h is 55.2 ± 1.2 µM. In the data set with PfNF54, the “Antiplasmodial activity against NF54 strain (in words)” value is “inactive”. Also, in data set [1], the “Pf3D7 selectivity index (SI, CC50/EC50)” value is on record as 13.6 and the “Antiplasmodial activity against Pf3D7 (in words)” value is given as “moderately active”. The concentration for a half-maximal effect (EC50) in data set [1] (setting [4]) came out at 4.04 ± 0.03 µM. In the data set on PfK1, the “Antiplasmodial activity against K1 strain (in words)” value is “inactive”.
Regarding `CC1(C)[C@@H]2CC=C(CC(=O)Nc3ccnc4ccccc34)[C@H]1C2` [Compound 5, 2-((1S,5R)-6,6-dimethylbicyclo[3.1.1]hept-2-en-2-yl)-N-(quinolin-4-yl) Acetamide], the CC50 in data set [2] stood at 3.98 ± 0.7 µM. Besides, in the data set with PfNF54, the “Antiplasmodial activity against NF54 strain (in words)” value is on record as “weakly active”; the “PfNF54 selectivity index (SI, CC50/EC50)” value stood at 0.2; the EC50 is 23.4 ± 0.14 µM. Besides, the “Pf3D7 selectivity index (SI, CC50/EC50)” value in data set [1] is reported as 0.2. The EC50 in data set [1] (setting [5]) amounted to 26.4 ± 1.7 µM. Besides, in the data set on PfK1, the “PfK1 selectivity index (SI, CC50/EC50)” value is given as 0.3; the concentration for a half-maximal effect (EC50) worked out at 13.9 ± 2.1 µM; the “Antiplasmodial activity against K1 strain (in words)” value is recorded as “weakly active”.
Consider `Cc1cc(C(=O)OCCC2=CC[C@@H]3C[C@H]2C3(C)C)c2ccc(Cl)cc2n1` (stereo in doubt) [Compound 13, 2-((1S,5R)-6,6-dimethylbicyclo[3.1.1]hept-2-en-2-yl)ethyl-7-chloro-2-methylquinoline-4-carboxylate], for which the CC50 at 72 h in the data set “Cytotoxicity assay (MTT)” (read-out: Hep G2 CC50) is above 160 µM. Moreover, in data set [1], the “Pf3D7 selectivity index (SI, CC50/EC50)” value is above 6.9 and the “Antiplasmodial activity against Pf3D7 (in words)” value was “very weak antiplasmodial activity”. Moreover, the concentration giving a half-maximal response (EC50) in data set [1] (setting [4]) is 23 ± 2 µM.
`CC1(C)[C@@H]2CC=C(CC(=O)Oc3ccnc4cc(Cl)ccc34)[C@H]1C2` [Compound 8, 7-chloroquinolin-4-yl-2-((1S,5R)-6,6-dimethylbicyclo[3.1.1]hept-2-en-2-yl) Acetate] returned a half-maximal cytotoxic concentration (CC50) in data set [2] above 160 µM. Moreover, in the data set on PfNF54, the “PfNF54 selectivity index (SI, CC50/EC50)” value was above 6.8 and the EC50 stood at 23.3 µM. Further, the EC50 in data set [1] (setting [5]) was above 50 µM. For the same molecule, in the data set with PfK1, the “PfK1 selectivity index (SI, CC50/EC50)” value is recorded as above 976; the EC50 is 0.16 µM and 0.164 µM; the “Antiplasmodial activity against K1 strain (in words)” value is given as “sub-micromolar EC50”.
Regarding `CCCCCCCCCCCCOS(=O)(=O)[O-].[Na+]` [SDS (0.1%)], the “Hep G2 percent viability” value in data set [3] is “^b 1%”.
In the case of `Cc1cc(C(=O)OCC[C@@]23O[C@@H]2C[C@@H]2C[C@H]3C2(C)C)c2ccc(Cl)cc2n1` (stereo in doubt) [Compound 16, 2-((1S,2S,4R,6S)-7,7-dimethyl-3-oxatricyclo[4.1.1.0 2,4]octan-2-yl)ethyl-7-chloro-2-methylquinoline-4-carboxylate], the CC50 at 72 h in the data set “Cytotoxicity assay (MTT)” (read-out: Hep G2 CC50) is 76.8 ± 6.5 µM. Further, in data set [1], the “Pf3D7 selectivity index (SI, CC50/EC50)” value came out at 1.9 and the “Antiplasmodial activity against Pf3D7 (in words)” value is given as “weakly active but nonselective”. The EC50 in data set [1] (setting [4]) amounted to 40.4 ± 1.58 µM.
`CC1(C)C2CC=C(CC(=O)Nc3cccc4cccnc34)C1C2` (single isomer, unassigned) [Compound 3, 2-(6,6-dimethylbicyclo[3.1.1]hept-2-en-2-yl)-N-(quinolin-8-yl) Acetamide] yielded a CC50 in data set [2] above 160 µM. Also, in the data set on PfNF54, the “Antiplasmodial activity against NF54 strain (in words)” value was “inactive”. For the same molecule, the concentration giving a half-maximal response (EC50) is above 50 µM in the data set with PfNF54, 2.19 ± 0.15 µM in data set [1] (setting [5]) and above 50 µM with PfK1. In addition, the “Pf3D7 selectivity index (SI, CC50/EC50)” value in data set [1] is reported as above 73.1. Also, the “Antiplasmodial activity against K1 strain (in words)” value in the data set with PfK1 is “inactive”.
The molecule `CC1(C)C2CC=C(CC(=O)Nc3cccc4cccnc34)C1C2` (single isomer, unassigned) [Compound 4, 2-(6,6-dimethylbicyclo[3.1.1]hept-2-en-2-yl)-N-(quinolin-8-yl) Acetamide] gave a CC50 in data set [2] above 160 µM. Moreover, in the data set with PfNF54, the “Antiplasmodial activity against NF54 strain (in words)” value is “inactive” and the half-maximal effective concentration (EC50) is above 50 µM. Moreover, the “Pf3D7 selectivity index (SI, CC50/EC50)” value in data set [1] was above 62.3. Besides, the EC50 in data set [1] (setting [5]) was found to be 2.57 ± 0.02 µM. In addition, in the data set on PfK1, the EC50 is above 50 µM and the “Antiplasmodial activity against K1 strain (in words)” value was “inactive”.
